The text below walks through data of patent US5521319A, “Biotinylation reagent and method of use thereof” (priority 1993, dated 1996).

The conditions of data set [1]: cited from earlier work; for Solubility in organic solvents: organic solvents with the exception of DMSO and DMF.
Data set [2] can be described thus: Solubility of biotinylation reagents at 20° C. It is filed as physicochemical. The conditions noted are these: for Solubility in DMF / Solubility in dichloromethane / Solubility in methanol / Solubility in water: 20° C. The source says:
[table 1: the next 15 blocks are its lines as printed, fixed-width]

In data set [3] the test system is TSH. Briefly: Electrochemiluminescence immunological determination of TSH with biotinylated antibody, ruthenium-labelled F(ab')2 and streptavidin magnetic particles. From the text:
(§1) After dialysis against 25 mmol/l potassium phosphate/50 mmol/l sodium chloride pH 7.0, the product is lyophilized.

Data set [4] has as its system TSH. Nature of the data set: Immunological determination of TSH using streptavidin magnetic particles and photometric signal measurement.
Description: as §1

Setting [5] is: electrochemiluminescence measurement, vs biotin-NHS.

SMILES strings stand for the structures. Converted amounts (≈) assume the structure as drawn.

As to `O=C(CCCC[C@@H]1SC[C@@H]2NC(=O)N[C@@H]21)NCCCCCC(=O)ON1C(=O)CC(S(=O)(=O)O)C1=O` (some centres unmarked) [sulfo-NHS-LC-biotin], the “Solubility in an aqueous medium” value in data set [1] (aqueous medium) is listed as “good solubility”. Moreover, the “Solubility in organic solvents in the required concentrations” value in data set [1] (organic solvents, in the required concentrations) is listed as “not soluble”.

With `O=C(CCCC[C@@H]1SC[C@@H]2NC(=O)N[C@@H]21)NCCCCCC(=O)ON1C(=O)CCC1=O` [biotin-X-NHS, biotinoylaminocaproic acidN-hydroxysuccinimide ester], in data set [2], the “Solubility in DMF” value was determined as 10000 µg/mL (≈ 22 mM) and the Solubility in methanol was 10000 µg/mL (≈ 22 mM). In data set [2] (dichloromethane), this compound showed a Solubility in dichloromethane of under 1000 µg/mL. Further, the Solubility in water in data set [2] (water) worked out at 10000 µg/mL (≈ 22 mM). In the data set with TSH [3] (setting [5]), the “Signal of biotinylated antibodies compared with spacer-free biotin-NHS” value was “considerably higher signals”. Further, in data set [1], the “Solubility in organic solvents” value is reported as “only moderately soluble”; the “Solubility in water and aqueous buffer solutions” value is “only moderate solubility”.

Regarding `O=C(CCCC[C@@H]1SC[C@@H]2NC(=O)N[C@@H]21)NCCCCCC(=O)ON1C(=O)CCC1=O` [NHS-LC-biotin], in data set [2], the “Solubility in DMF” value turned out to be 20000 µg/mL (≈ 44 mM) and the Solubility in methanol was found to be 20000 µg/mL (≈ 44 mM). Moreover, the Solubility in water in data set [2] (water) was 2000 µg/mL (≈ 4.4 mM).

`O=C(CCCCCCC(=O)ON1C(=O)CCC1=O)NCCOCCOCCNC(=O)CCCC[C@@H]1SC[C@@H]2NC(=O)N[C@@H]21` [biotin-DDS, biotinoyl-amino-3,6-dioxaoctanyl-aminocarbonyl-heptanoic acid-N-hydroxysuccinimide ester]: in data set [2], the “Solubility in DMF” value is 20000 µg/mL (≈ 31.9 mM) and the Solubility in methanol amounted to 20000 µg/mL (≈ 31.9 mM). Moreover, the “Solubility spectrum compared with known reagents” value in data set [2] (compared with biotinylation reagents of the state of the art) is “considerably broader solubility spectrum than known compounds”. The compound also registered a Solubility in dichloromethane in data set [2] (dichloromethane) of 10000 µg/mL (≈ 15.9 mM). Besides, in data set [2] (water), the Solubility in water amounted to 7000 µg/mL (≈ 11.2 mM). For the same compound, the “Solubility in strongly polar (water) and non-polar (dichloromethane) solvents” value in data set [2] (water, dichloromethane) is listed as “good solubility”. For the same compound, the “Photometric signal of labelled antibody compared with biotin-X-NHS” value in the data set with TSH [4] (magnetic particle test with antibody-POD conjugate, vs antibody biotinylated with biotin-X-NHS) is reported as “significantly higher signals”. Further, the “Degree of biotinylation giving the signal optimum” value in the data set with TSH [4] (photometric measurement) was “signal optimum at a lower degree of biotinylation”. In addition, in the data set with TSH [3] (electrochemiluminescence and other immunological tests with spherical solid phases, vs biotin-NHS), the “Performance of conjugates produced with the reagent, better than with biotin-NHS” value was “about 3.5 fold”. In addition, the “Performance of conjugates produced with the reagent, better than with biotin-X-NHS” value in the data set with TSH [3] (electrochemiluminescence and other immunological tests with spherical solid phases, vs biotin-X-NHS) came to 1.3 fold. Further, the “Signal yield of antibodies biotinylated via biotin-DDS, higher than via biotin-X-NHS” value in the data set on TSH [3] (electrochemiluminescence measurement, vs antibodies biotinylated via biotin-X-NHS) was determined as 25.7%. In the data set on TSH [3] (setting [5]), the “Signal of biotinylated antibodies compared with spacer-free biotin-NHS” value is recorded as “considerably higher signals”.

On to `O=C1N[C@H]2[C@H](CS[C@H]2CCCCC(=O)ON2C(=O)CCC2=O)N1` [biotin-NHS, biotin-N-hydroxysuccinimide esters], for which, in data set [1], the “Solubility in organic solvents” value was “only moderately soluble”; the “Solubility in water and aqueous buffer solutions” value is on record as “only moderate solubility”.
